Assay results: the NIST ThermoML archive (doi:10.1021/je7001623)

Conditions: 101.33 kPa, Liquid; for mass density: Vibrating tube method; for viscosity: surface light scattering

CC(C)CCCCCCCOC(=O)c1ccccc1C(=O)OCCCCCCCC(C)C
Conditions | mass density [kg/m3] | viscosity [mPa·s]
273.14 K | 980.74 | –
278.15 K | 977.13 | –
283.15 K | 973.51 | 265.6
288.15 K | 969.94 | 177.4
293.15 K | 966.43 | 123.8
298.15 K | – | 88.44
298.16 K | 962.9 | –
303.15 K | – | 64.84
303.16 K | 959.36 | –
308.15 K | – | 48.98
308.16 K | 955.81 | –
313.15 K | – | 38.01
313.16 K | 952.27 | –
318.16 K | 948.73 | –
323.16 K | 945.19 | –
328.16 K | 941.65 | –
333.16 K | 938.12 | –
338.16 K | 934.6 | –
348.15 K | 927.54 | –
353.15 K | 924.02 | –
358.15 K | 920.5 | –
363.15 K | 916.95 | –
